Assay [1] has as its target DvPMT1 (Dictyocaulus viviparus, UniProt A0A0D8Y714). The assay is described as follows: biochemical. It is filed as biochemical. How it is done: (§1) The chemical compounds were obtained from the National Cancer Institute/Developmental Therapeutics Program Open Chemical Repository. […] Compounds were individually reconstituted in molecular biology grade dimethyl sulfoxide (DMSO) from Sigma-Aldrich to a stock concentration of 10 mM and stored at −20°C until use. Initial screening was conducted using recombinant HcPMT1 protein as enzyme in the methyltransferase assay, with test compounds at a final concentration of 40 μM. […] To the positive reaction mixture, instead of test compound, an equivalent volume of DMSO was added. In the negative-control reaction mixture, instead of HcPMT1 and test compound, equivalent volumes of 1× transferase buffer and DMSO, respectively, were added. Detection buffer (100 μL) containing fluorescence substrate was added into each reaction mixture. The reactions were prepared in triplicate wells in 96-well plates. The plates were covered in aluminum foil and incubated at room temperature with agitation for 30 min, followed by reading the fluorescence at 380EX/520EM. The mean percent inhibition (MPI) of the test compound on enzymatic activity was calculated using the following formula: MPI = ΔRFUpositive control − ΔRFUcompounds/ΔRFUpositive control × 100, where the positive control is a reaction without compound but with recombinant PMT protein and a volume of DMSO equivalent to that of compound used in test reactions; the negative control is the reaction without protein and compounds, but with volumes of dialysis buffer and DMSO equivalent to protein and compound added in the test reaction mixtures, respectively; ΔRFUpositive control represents the absolute relative fluorescence units (RFU) for the positive control, which equals RFUpositive control – RFUnegative control; and ΔRFUcompounds represents the absolute RFU value for the sample with the compounds, which equals RFUcompounds – RFUnegative control.
(§2) The enzymatic assay was set up as described above, with the respective PMT protein as enzyme.

For assay [2], the target named is TcPMT (Toxocara canis, UniProt A0A0B2VTW9). The assay is described as follows: biochemical. It is filed as biochemical. As for the experimental part:
as §1, §2

The target in assay [3] is AsPMT (Ascaris suum, UniProt F1L4B9). It is filed as biochemical. How it is done:
as §1, §2

Assay [4] deals with AcPMT1+2-complemented pem1Δ/pem2Δ S. cerevisiae. The assay is described as follows: Growth inhibition of complemented yeast. It is filed as cell-based, Saccharomyces cerevisiae. Conditions: medium with ethanolamine, no choline, day 3; read-out: Mean growth inhibition EC50 ± SEM on complemented yeast, AcPMT1+2. How it is done:
(§3) To determine the effect of PMT inhibitors on the growth of PMT- and LacZ-complemented pem1Δpem2Δ S. cerevisiae, the yeast cells were first starved of choline as described above, and the cells were diluted to an OD600 of ~0.6. The PMT-complemented yeast cells were cultured in SG medium (3.4g/L yeast nitrogen base without amino acids, 2% galactose, 30 mg/L histidine, 100 mg/L leucine, 100 mg/L adenine, and 50 mg/L tryptophan) supplemented with 1 mM ethanolamine hydrochloride, while the LacZ-complemented yeast cells were cultured in SG medium supplemented with 1 mM choline chloride. Compounds that depicted cross-inhibitory activity against PMT proteins in vitro were added at various concentrations to the cultures. As a negative control, DMSO (at a final concentration not exceeding 2% [vol/vol]) was added to yeast cultures designated control cultures. The cultures were incubated at 30°C with shaking at 275 rpm for 4 days. On a daily basis during the course of culture, 200-μL portions of culture aliquots were taken, and their OD600s were measured using a microplate reader. In preliminary work, we had observed that the growth of PMT- and LacZ-complemented pem1Δpem2Δ S. cerevisiae plateaued at 3 to 4 days of culture. Therefore, to determine the inhibitory effect of nematode PMT inhibitors on the growth of PMT- and LacZ-complemented pem1Δpem2Δ S. cerevisiae, measurements taken on day 3 were used. The results were presented as percentage of growth rate using the following formula: PGR = growth rate (plus inhibitor)/growth rate (minus inhibitor) × 100 where the percent growth rate (PGR) is the growth rate of inhibitor-treated PMT- or LacZ- complemented Pem1Δpem2Δ S. cerevisiae, considering the growth rate of untreated PMT- or LacZ- complemented Pem1Δpem2Δ S. cerevisiae is 100%; the growth rate = ΔA600^Day 3/ΔA600^Day 0; ΔA600^Day 0 is the absolute value of A600 of PMT- or LacZ- complemented pem1Δ/pem2Δ S. cerevisiae at day 0, which equals the A600 of the culture minus the A600 of the growth medium only; ΔA600^Day 3 is the absolute value of the A600 of PMT- or LacZ complemented pem1Δ/pem2Δ S. cerevisiae at day 3, which equals the A600 of the culture at day 3 minus the A600 of growth medium only; the growth rate (plus inhibitor) is the growth rate of PMT- or -LacZ complemented pem1Δpem2Δ S. cerevisiae in the presence of test compound; and the growth rate (minus inhibitor) is the growth rate of the PMT- or LacZ complemented pem1Δ/pem2Δ S. cerevisiae in the absence of test compound, but with a volume of DMSO equal to that of compound added in the treated culture. The dose-response curves were generated with GraphPad Prism software and IC50 concentrations of the compounds in PMT- and LacZ-complemented yeast cells derived.

The subject of assay [5] is AsPMT-complemented pem1Δ/pem2Δ S. cerevisiae. The assay is described as follows: Growth inhibition of complemented yeast. It is filed as cell-based, Saccharomyces cerevisiae. To be noted: medium with ethanolamine, no choline, day 3; read-out: Mean growth inhibition EC50 ± SEM on complemented yeast, AsPMT. How it is done: as §3
Assay [6] has as its system DvPMT1+2-complemented pem1Δ/pem2Δ S. cerevisiae. The assay is described as follows: Growth inhibition of complemented yeast. Conditions: medium with ethanolamine, no choline, day 3; read-out: Mean growth inhibition EC50 ± SEM on complemented yeast, DvPMT1+2. It is filed as cell-based, Saccharomyces cerevisiae. How it is done:
as §3

Assay [7] deals with HcPMT1+2-complemented pem1Δ/pem2Δ S. cerevisiae. Kind of assay: Growth inhibition of complemented yeast. It is filed as cell-based, Saccharomyces cerevisiae. Conditions: medium with ethanolamine, no choline, day 3; read-out: Mean growth inhibition EC50 ± SEM on complemented yeast, HcPMT1+2. How it is done:
as §3

Assay [8] concerns LacZ-complemented pem1Δ/pem2Δ S. cerevisiae. The assay is described as follows: Growth inhibition of complemented yeast. It is filed as cell-based, Saccharomyces cerevisiae. To be noted: medium with choline. How it is done:
as §3

For assay [9], the system named is OdPMT-complemented pem1Δ/pem2Δ S. cerevisiae. Kind of assay: Growth inhibition of complemented yeast. It is filed as cell-based, Saccharomyces cerevisiae. Conditions: medium with ethanolamine, no choline, day 3; read-out: Mean growth inhibition EC50 ± SEM on complemented yeast, OdPMT. As for the experimental part:
as §3

The test system of assay [10] is TcPMT-complemented pem1Δ/pem2Δ S. cerevisiae. Kind of assay: Growth inhibition of complemented yeast. It is filed as cell-based, Saccharomyces cerevisiae. Conditions: medium with ethanolamine, no choline, day 3; read-out: Mean growth inhibition EC50 ± SEM on complemented yeast, TcPMT. How it is done:
as §3

The subject of assay [11] is PMT-complemented mutant yeast. Kind of assay: Growth inhibition of complemented yeast (statement on PMT-complemented strains together). It is filed as cell-based, Saccharomyces cerevisiae. Conditions: various concentrations. How it is done:
as §3
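Throughout, for Selectivity index (SI) AsPMT: cytotoxicity IC50 measured in HCT-8 cells.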
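Throughout, for Selectivity index (SI) DvPMT1: cytotoxicity IC50 measured in HCT-8 cells.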
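Throughout, for Selectivity index (SI) TcPMT: cytotoxicity IC50 measured in HCT-8 cells.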

Sequence of AsPMT (F1L4B9 entry or part of it): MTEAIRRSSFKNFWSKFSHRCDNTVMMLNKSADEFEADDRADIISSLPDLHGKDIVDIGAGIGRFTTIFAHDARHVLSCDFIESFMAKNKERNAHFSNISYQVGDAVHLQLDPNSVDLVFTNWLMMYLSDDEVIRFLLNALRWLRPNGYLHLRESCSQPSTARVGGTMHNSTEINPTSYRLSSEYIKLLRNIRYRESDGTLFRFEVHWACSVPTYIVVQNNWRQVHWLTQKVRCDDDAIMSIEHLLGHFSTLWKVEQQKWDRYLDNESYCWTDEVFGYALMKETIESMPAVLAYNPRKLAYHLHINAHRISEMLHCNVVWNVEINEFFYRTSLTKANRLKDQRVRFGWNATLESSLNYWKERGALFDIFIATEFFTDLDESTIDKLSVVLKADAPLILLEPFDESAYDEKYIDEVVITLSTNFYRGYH
Sequence of TcPMT (A0A0B2VTW9 entry or part of it): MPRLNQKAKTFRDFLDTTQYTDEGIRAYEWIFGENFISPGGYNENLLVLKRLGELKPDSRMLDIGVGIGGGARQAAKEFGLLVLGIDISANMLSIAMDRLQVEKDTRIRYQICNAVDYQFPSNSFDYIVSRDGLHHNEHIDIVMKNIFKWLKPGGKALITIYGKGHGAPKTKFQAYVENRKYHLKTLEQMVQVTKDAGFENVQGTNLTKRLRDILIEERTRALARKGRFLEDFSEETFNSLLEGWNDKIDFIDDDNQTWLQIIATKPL
Sequence of DvPMT1 (A0A0D8Y714 entry or part of it): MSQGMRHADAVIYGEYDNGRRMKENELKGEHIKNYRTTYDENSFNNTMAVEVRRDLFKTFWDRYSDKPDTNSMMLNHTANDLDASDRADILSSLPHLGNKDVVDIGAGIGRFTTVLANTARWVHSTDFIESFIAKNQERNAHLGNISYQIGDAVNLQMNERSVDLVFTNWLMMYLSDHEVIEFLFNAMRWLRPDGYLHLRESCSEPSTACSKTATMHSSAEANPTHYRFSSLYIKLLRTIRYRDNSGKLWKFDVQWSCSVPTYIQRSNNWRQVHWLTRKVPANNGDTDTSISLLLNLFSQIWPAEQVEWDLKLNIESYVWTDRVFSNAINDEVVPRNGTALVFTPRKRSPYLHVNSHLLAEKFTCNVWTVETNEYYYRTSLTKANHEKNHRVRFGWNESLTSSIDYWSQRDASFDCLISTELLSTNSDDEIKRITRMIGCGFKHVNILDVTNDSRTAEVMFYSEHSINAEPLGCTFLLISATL

For the compound `CO[C@@H]1/C=C\O[C@]2(C)Oc3c(C)c(O)c4c(O)c(c(CN(C)C)c(O)c4c3C2=O)NC(=O)/C(C)=C\C=C[C@@H](C)[C@@H](O)[C@H](C)[C@@H](O)[C@H](C)[C@H](OC(C)=O)[C@@H]1C` [NSC145612], the “Selectivity index (SI) DvPMT1” value in [1] (IC50^Cytotoxicity/IC50^Enzyme) stood at 5.49. For the same compound, the IC50 in [1] (read-out: Mean IC50 ± SEM, Enzyme DvPMT1) was 55.1 ± 4.46 µM; in [2] (read-out: Mean IC50 ± SEM, Enzyme TcPMT) it was 109 ± 12.6 µM; in assay [3] (read-out: Mean IC50 ± SEM, Enzyme AsPMT) it was 45.3 ± 1.71 µM. In [2] (IC50^Cytotoxicity/IC50^Enzyme), the “Selectivity index (SI) TcPMT” value was found to be 2.77. Also, in assay [3] (IC50^Cytotoxicity/IC50^Enzyme), the “Selectivity index (SI) AsPMT” value was determined as 6.67. Also, the concentration for a half-maximal effect (EC50) came out at 29.3 ± 2.54 µM in [4]; 28.9 ± 4.38 µM in assay [5]; 23 ± 2.15 µM in assay [6]; 8.28 ± 0.99 µM in assay [7]; 32.8 ± 2.64 µM in [9]; 27.2 ± 7.7 µM in [10]. For the same compound, the “effect on LacZ-expressing mutant yeast” value in assay [8] is listed as “no or negligible inhibitory effect”. In addition, the “effect on the growth of PMT-complemented mutant yeast” value in [11] is listed as “concentration-dependent inhibitory effect”.
